Test results: patent US9598391B2, “Substituted chroman compounds as calcium sensing receptor modulators” (LUPIN LIMITED, priority 2012, dated 2017)
Where a name gives a salt, the structure may show the parent alone.

The molecules below were run against T1, Calcium Sensing Receptor (CaSR) (Homo sapiens, UniProt P41180) (assay: In-vitro assay of calcimimetics through modulation of Calcium Sensing Receptor (intracellular calcium, FLIPR)). Details: HEK293 cells stably expressing hCaSR, increase in intracellular calcium, Fluo4NW dye, 0.3 mM CaCl2, 8-point assay, read-out: EC50 Range.
T1 construct: expressed in transfected cells
T1 sequence (P41180 20-1078): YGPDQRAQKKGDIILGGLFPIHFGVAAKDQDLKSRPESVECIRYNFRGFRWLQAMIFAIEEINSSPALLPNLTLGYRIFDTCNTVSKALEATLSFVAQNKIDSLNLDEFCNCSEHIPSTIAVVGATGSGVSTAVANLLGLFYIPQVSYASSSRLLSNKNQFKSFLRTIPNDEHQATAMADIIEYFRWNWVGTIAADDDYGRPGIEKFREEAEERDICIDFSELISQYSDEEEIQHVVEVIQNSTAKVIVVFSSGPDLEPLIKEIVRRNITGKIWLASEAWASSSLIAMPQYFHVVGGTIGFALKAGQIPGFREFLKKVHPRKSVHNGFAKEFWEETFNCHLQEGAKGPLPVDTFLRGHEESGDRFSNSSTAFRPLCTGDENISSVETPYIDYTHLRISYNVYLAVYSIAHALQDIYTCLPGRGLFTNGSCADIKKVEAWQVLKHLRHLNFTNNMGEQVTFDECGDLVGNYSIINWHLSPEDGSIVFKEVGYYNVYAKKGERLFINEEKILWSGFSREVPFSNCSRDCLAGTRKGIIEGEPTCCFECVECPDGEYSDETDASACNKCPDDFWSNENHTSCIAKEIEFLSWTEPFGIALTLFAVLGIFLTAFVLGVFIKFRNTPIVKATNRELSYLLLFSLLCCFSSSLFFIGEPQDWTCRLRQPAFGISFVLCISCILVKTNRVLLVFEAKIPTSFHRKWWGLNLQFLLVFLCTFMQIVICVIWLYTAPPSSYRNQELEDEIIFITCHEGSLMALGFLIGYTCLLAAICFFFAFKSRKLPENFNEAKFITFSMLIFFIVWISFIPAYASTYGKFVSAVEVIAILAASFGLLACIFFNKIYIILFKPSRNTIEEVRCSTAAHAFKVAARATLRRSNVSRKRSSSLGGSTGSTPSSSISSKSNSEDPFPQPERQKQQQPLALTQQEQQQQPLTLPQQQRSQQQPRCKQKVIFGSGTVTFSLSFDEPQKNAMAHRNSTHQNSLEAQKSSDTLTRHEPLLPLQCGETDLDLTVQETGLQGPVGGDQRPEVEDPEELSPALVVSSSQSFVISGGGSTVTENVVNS
Format: cell-based
Procedure: In-vitro assay method of Calcimimetics through modulation of Calcium Sensing Receptor (CaSR):
The ability of the compounds to modulate Calcium sensing receptor is determined by measuring an increase in intracellular calcium [Ca^2+]i. Stably transfected HEK293 cells expressing hCaSR_pTriEx-3 hygro vector are developed. Cells are grown overnight on a 96-well plate to 80% confluency in Ham's F12 containing 20% FBS at 37° C., 5% CO2. Subsequently, cells are washed extensively with 20 mM HEPES buffer containing 126 mM […], 1 mM MgCl2 and 4 mM KCl to remove serum components that might interfere with the assay. Cells are loaded with calcium sensing Fluo4NW dye in HEPES base buffer containing 0.1% BSA and 1 mg/ml glucose for 30 minutes to measure changes in intracellular calcium. The activities of the compounds are measured in FLIPR using 0.3 mM CaCl2 in 20 mM HEPES base buffer. The effectiveness of the compound to modulate receptor activity is determined by calculating the EC50 responses for that compound in an 8-point assay and plotted using GraphPad Prism 5.
With `Cc1ccc([C@@H]2C[C@H](CCN[C@H](C)c3cccc4ccccc34)Oc3ccccc32)cc1C(=O)O` [Example 124, 2-Methyl-5-((2R,4S)-2-(2-(((R)-1-(naphthalen-1-yl)ethyl)amino)ethyl)chroman-4-yl)benzoic acid hydrochloride] the EC50 was < 20 nM.
For `COc1cc([C@@H](C)NC[C@H]2C[C@@H](c3ccc(C)c(C(=O)O)c3)c3ccccc3O2)ccc1F` [Example 116, 5-((2R,4S)-2-((((R)-1-(4-Fluoro-3-methoxyphenyl)ethyl)amino)methyl)chroman-4-yl)-2-methyl benzoic acid hydrochloride], the EC50 was 50 to 200 nM.
`C[C@@H](NC[C@H]1C[C@@H](c2ccc(F)c(OCC(=O)O)c2)c2ccccc2O1)c1cccc2ccccc12` [Example 93b, 2-(2-Fluoro-5-((2R,4S)-2-((((R)-1-(naphthalen-1-yl)ethyl)amino)methyl)chroman-4-yl)phenoxy)acetic acid hydrochloride] was tested, and the EC50 was < 20 nM.
For `Cc1c(C(=O)O)ccc(F)c1[C@H]1C[C@H](CN[C@H](C)c2cccc3ccccc23)Oc2ccccc21` [Example 81a, 4-Fluoro-2-methyl-3-((2R,4S)-2-((((R)-1-(naphthalen-1-yl)ethyl)amino)methyl)chroman-4-yl)benzoic acid hydrochloride], the EC50 was 50 to 200 nM.
`C[C@@H](NC[C@H]1C[C@@H](c2ccc(C(=O)O)cc2)c2ccccc2O1)c1cccc2ccccc12` [Example 98b, 4-((2R,4S)-2-((((R)-1-(Naphthalen-1-yl)ethyl)amino)methyl)chroman-4-yl)benzoic acid hydrochloride] gave an EC50 of 50 to 200 nM.
For `Cc1ccc([C@@H]2C[C@H](CN[C@H](C)c3cccc4ccccc34)Oc3ccccc32)cc1OCC(=O)O` [Example 91, 2-(2-Methyl-5-((2R,4S)-2-((((R)-1-(naphthalen-1-yl)ethyl)amino)methyl)chroman-4-yl)phenoxy)acetic acid hydrochloride], the EC50 was < 20 nM.
With `COc1cc(C(=O)O)ccc1[C@@H]1C[C@H](CN[C@H](C)c2cccc3ccccc23)Oc2ccccc21` [Example 102b, 3-Methoxy-4-((2R,4S)-2-((((R)-1-(naphthalen-1-yl)ethyl)amino)methyl)chroman-4-yl)benzoic acid hydrochloride] the EC50 was < 20 nM.
For `C[C@@H](NC[C@H]1C[C@H](c2ccc(F)c(OCC(=O)O)c2)c2ccccc2O1)c1cccc2ccccc12` [Example 93a, 2-(2-Fluoro-5-((2R,4R)-2-((((R)-1-(naphthalen-1-yl)ethyl)amino)methyl)chroman-4-yl)phenoxy)acetic acid hydrochloride], the EC50 was < 20 nM.
With `Cc1ccc([C@@H]2C[C@H](CN[C@H](C)c3ccc(F)c4ccccc34)Oc3ccccc32)cc1C(=O)O` [Example 119b, 5-((2R,4S)-2-((((R)-1-(4-Fluoronaphthalen-1-yl)ethyl)amino)methyl)chroman-4-yl)-2-methyl benzoic acid hydrochloride] the EC50 was < 20 nM.
Work on `C[C@@H](NC[C@H]1C[C@@H](c2cc(F)c(C(=O)O)c(F)c2)c2ccccc2O1)c1cccc2ccccc12` [Example 101, 2,6-Difluoro-4-((2R,4S)-2-((((R)-1-(naphthalen-1-yl)ethyl)amino)methyl)chroman-4-yl)benzoic acid hydrochloride] yielded an EC50 of 20 to 50 nM.
With `C[C@@H](NC[C@H]1C[C@H](c2ccc(C(C)(C)C(=O)O)cc2)c2ccccc2O1)c1cccc2ccccc12` [Example 108a, 2-Methyl-2-(4-((2R,4R)-2-((((R)-1-(naphthalen-1-yl)ethyl)amino)methyl)chroman-4-yl)phenyl)propanoic acid hydrochloride] the EC50 was 50 to 200 nM.
`COc1c(C(=O)O)cccc1[C@@H]1C[C@H](CN[C@H](C)c2cccc3ccccc23)Oc2ccccc21` [Example 89b, 2-Methoxy-3-((2R,4R)-2-((((R)-1-(naphthalen-1-yl)ethyl)amino)methyl)chroman-4-yl)benzoic acid hydrochloride] was tested, and the EC50 was < 20 nM.
In the case of `C[C@@H](NC[C@H]1C[C@@H](c2cccc(OC(C)(C)C(=O)O)c2)c2ccccc2O1)c1cccc2ccccc12` [Example 97, 2-Methyl-2-(3-((2R,4S)-2-((((R)-1-(naphthalen-1-yl)ethyl)amino)methyl)chroman-4-yl)phenoxy)propanoic acid hydrochloride], the EC50 is reported as 20 to 50 nM.
With `Cc1c(C(=O)O)ccc(F)c1[C@@H]1C[C@H](CN[C@H](C)c2cccc3ccccc23)Oc2ccccc21` [Example 81b, 4-Fluoro-2-methyl-3-((2R,4R)-2-((((R)-1-(naphthalen-1-yl)ethyl)amino)methyl)chroman-4-yl)benzoic acid hydrochloride] the EC50 was < 20 nM.
In the case of `C[C@@H](NC[C@H]1C[C@H](c2ccc(C(=O)O)cc2)c2ccccc2O1)c1cccc2ccccc12` [Example 98a, 4-((2R,4R)-2-((((R)-1-(Naphthalen-1-yl)ethyl)amino)methyl)chroman-4-yl)benzoic acid hydrochloride], the EC50 is reported as 50 to 200 nM.
With `C[C@@H](NC[C@H]1C[C@@H](c2ccc(C(F)(F)F)c(C(=O)O)c2)c2ccccc2O1)c1cccc2ccccc12` [Example 83, 5-((2R,4S)-2-((((R)-1-(Naphthalen-1-yl)ethyl)amino)methyl)chroman-4-yl)-2-(trifluoromethyl)benzoic acid hydrochloride] the EC50 was < 20 nM.
`C[C@@H](NC[C@H]1C[C@@H](c2cccc(C(=O)NCC(=O)O)c2)c2ccccc2O1)c1cccc2ccccc12` [Example 140, 2-(3-((2R,4S)-2-((((R)-1-(Naphthalen-1-yl)ethyl)amino)methyl)chroman-4-yl)benzamido) acetic acid hydrochloride] was tested, and the EC50 was < 20 nM.
In the case of `C[C@@H](NCCC[C@H]1C[C@@H](c2ccc(C(=O)O)cc2)c2ccccc2O1)c1ccc(F)c2ccccc12` [Example 136, 4-((2S,4S)-2-(3-(((R)-1-(4-Fluoronaphthalen-1-yl)ethyl)amino)propyl)chroman-4-yl)benzoic acid hydrochloride], the EC50 is reported as < 20 nM.
In the case of `C[C@@H](NC[C@H]1C[C@@H](c2ccc(C(=O)O)c(F)c2)c2ccccc2O1)c1cccc2ccccc12` [Example 104, 2-Fluoro-4-((2R,4S)-2-((((R)-1-(naphthalen-1-yl)ethyl)amino)methyl)chroman-4-yl)benzoic acid hydrochloride], the EC50 is reported as < 20 nM.
Work on `COc1cc([C@@H](C)NC[C@H]2C[C@@H](c3ccc(C(=O)O)c(C)c3)c3ccccc3O2)ccc1F` [Example 114, 4-((2R,4S)-2-((((R)-1-(4-Fluoro-3-methoxyphenyl)ethyl)amino)methyl)chroman-4-yl)-2-methylbenzoic acid hydrochloride] yielded an EC50 of 50 to 200 nM.
In the case of `CCN(C)C(=O)c1cc([C@@H]2C[C@H](CN[C@H](C)c3cccc4ccccc34)Oc3ccccc32)ccc1C` [Example 145, N-Ethyl-N,2-dimethyl-5-((2R,4S)-2-((((R)-1-(naphthalen-1-yl)ethyl)amino)methyl)chroman-4-yl)benzamide hydrochloride], the EC50 is reported as 50 to 200 nM.
For `Cc1ccc([C@@H]2C[C@H](CN[C@H](C)c3cccc4ccccc34)Oc3ccccc32)c(C)c1C(=O)O` [Example 67, 2,6-Dimethyl-3-((2R,4S)-2-((((R)-1-(naphthalen-1-yl)ethyl)amino)methyl)chroman-4-yl)benzoic acid hydrochloride], the EC50 was < 20 nM.
`C[C@@H](NC[C@H]1C[C@@H](c2ccc(CC(=O)O)cc2)c2ccccc2O1)c1cccc2ccccc12` [Example 107b, 2-(4-((2R,4S)-2-((((R)-1-(Naphthalen-1-yl)ethyl)amino)methyl)chroman-4-yl)phenyl)acetic acid hydrochloride] gave an EC50 of 20 to 50 nM.
With `COc1c(C(=O)O)cccc1[C@H]1C[C@H](CN[C@H](C)c2cccc3ccccc23)Oc2ccccc21` [Example 89a, 2-Methoxy-3-((2R,4S)-2-((((R)-1-(naphthalen-1-yl)ethyl)amino)methyl)chroman-4-yl)benzoic acid hydrochloride] the EC50 was 20 to 50 nM.
